Source: article PMC10325900, “A conserved motif in the disordered linker of human MLH1 is vital for DNA mismatch repair and its function is diminished by a cancer family mutation” (Nucleic Acids Research, 2023)
“Also recorded” adds a separate entry of the source. No end group written: not given here.

Experiments:
[1] = tested on: MLH1 variant p.Arg385Pro and PMS2; assay: MMR complementation assay with peptide, MLH1 p.Arg385Pro variant; assay type: biochemical, human; conditions: ConMot-32 at 0, 7.5, 18 and 75 μM
Procedure: Mismatch repair activity was assessed as described in detail before ([79],[81]) (Supplementary Figure S3). […] Mismatched DNA plasmid substrate (Supplementary Figure S3) prepared according to previously published procedures ([81–83]) was added, and reactions in a final volume of 25 μl were incubated at 37°C for 15 min. Repair efficiency was scored by purifying the mismatched DNA plasmid from the reaction and assessing the fraction of homoduplex sequence by restriction digestion of the mismatched site using EcoRV. The substrate was additionally linearized with AseI.
For complementation assays with peptide, the indicated peptide(s) were used at stock concentrations of 50 or 500 μM in HEPES–KOH 20 mM pH 7.6 and supplemented to the MMR reactions.
In an identical way, we analyzed the effects of the ConMot peptide on MMR activity of the defective human MLH1 missense variant p.Arg385Pro (Figure 5).
Figure 5. […] Several MMR assays were performed; a representative agarose gel is shown (top), and average MMR activity values and standard deviations of three independent experiments were calculated (bottom). […]
In parallel, the single- strand nick is ligated. […] 40- 80% absolute repair, determined as signal intensities of the repair bands divided by sum of signal intensities of all plasmid bands, are optimally achieved and allow accurate determination of MMR activity of variants. […]

[2] = 33 μM peptide, 20 mM Na-phosphate pH 7.2, 25–95°C, detection at 222 nm
Procedure: For the CD analysis, 33 μM ConMot peptide was used in 20 mM Na-phosphate buffer pH 7.2, 20°C. Three scans were performed with 190–300 nm wavelength, using a 1 mm light path. A blank was measured with buffer. For the melting analysis, 33 μM ConMot peptide was used in 20 mM Na-phosphate buffer pH 7.2. Detection was at 222 nm, temperature was scanned from 25–95°C. A blank with buffer only was subtracted.

SGSSDKVYAHQMVRTDSREQKLDAFLQPLSKP [ConMot-32]
peptide concentrations required for restoration of p.Arg385Pro variant, compared with ConMot-deletion variant [1]: identical peptide concentrations as with the ConMot-deletion variant
restoration of DNA mismatch repair activity of the p.Arg385Pro variant ([1]; 37°C, 15 min, average of three independent experiments, listed as ConMot peptide): Restoration of MMR activity was again observed; also recorded: could be overcome
secondary structure formation by melting analysis [2]: Neither investigation provided evidence for secondary structure formation
